Laboratory results as given in patent US9988423B2, “Organogels and emulsions for biological and non-biological applications” (Agency for Science, Technology and Research, priority 2012, dated 2018).
Residues, ends and D or L forms follow the SMILES beside them. No end group written: not given here.

Tests used:
[1] = Stability of peptide emulsions in oil:water mixtures (phase separation); format: physicochemical; conditions: 7.5 mg/ml peptide in oil:water 50:50, 80:20, 20:80; in comparison to controls
Method: 7.5 mg/ml Ac-IVD-COOH (L) were dissolved in solvent mixtures of oil:water (50:50, 80:20, 20:80).

[2] = Organogel formation (gelation) of peptides in organic solvents; format: physicochemical
Method: The exemplary peptides are Ac-ID-COOH (L) (dimer), Ac-IVD-COOH (L) (trimer) and Ac-LIVAGD-COOH (L) (hexamer). The organogels depicted in (C) are (1) Ac-ID-COOH (L) 10 mg/ml in ethyl acetate, (2) Ac-ID-COOH (L) 10 mg/ml in toluene, (3) Ac-IVD-COOH (L) 2 mg/ml in acetonitrile, (4) Ac-IVD-COOH (L) 2 mg/ml in ethyl acetate, (5) Ac-IVD-COOH (L) 5 mg/ml in acetone, (6) Ac-LIVAGD-COOH (L) 5 mg/ml in toluene, and (7) Ac-LIVAGD-COOH (L) 10 mg/ml in ethyl acetate.
The organogels depicted in (B) are (1) Ac-IVF-COOH (L) 5 mg/ml in ethyl acetate, (2) Ac-IVF-COOH (L) 5 mg/ml in acetone, (3) Ac-IVF-COOH (L) 5 mg/ml in acetonitrile, (4) Ac-IVF-COOH (L) 5 mg/ml in chloroform, (5) Ac-IVW-COOH (L) 5 mg/ml in acetone, (6) Ac-IVW-COOH (L) 5 mg/ml in ethyl acetate, and (7) Ac-LIVAGF-COOH (L) 5 mg/ml in acetone.
Gels with increasing concentration of Ac-IVD-COOH (L) were prepared in ethyl acetate. […] Organogels of 2 mg/ml and 5 mg/ml Ac-IVD-COOH (L) in ethyl acetate were analyzed by field emission scanning electron microscopy (FESEM). FIGS. 3B and 3C show the effect of the peptide concentration on organogelation for the hexamer Ac-LIVAGD-COOH (L) in acetonitrile or ethyl acetate.
The formulation of the peptide organogels depends on several factors, such as peptide concentration, polarity of the organic solvent, peptide sequence and type of solvent used (see FIG. 3 as well as FIGS. 10A-G and 11). For example, increasing the peptide concentration reduced the gelation time for the formulation of peptide organogels. Based on the experimental data disclosed herein and his general knowledge, a person skilled in the art would have no problems in figuring out suitable gelation conditions (e.g. a suitable organic solvent) for a given peptide. For example, a skilled person knows about the nature of an organic solvent with respect to its polarity or non-polarity. […] Obviously, there is interaction with the polar head group of the peptide. […] Also, it seems that planar configurations (benzene ring, C═O, nitrile) within the solvent helps to stabilize the gel. This might be explained with a more favourable interaction of p-, sp^2-, or sp-orbitals.

phase separation of emulsion [1]	effect of peptide concentration on organogelation ([2]; in ethyl acetate, concentrations above 10 mg/ml (1% w/v))	organogel formation in organic solvents [2]	preferred gelation solvent ([2]; screening for quantum dot loading)	effect of peptide concentration on organogelation ([2]; in acetonitrile, increasing concentration 1-20 mg/ml)	effect of peptide concentration on organogelation ([2]; in ethyl acetate, increasing concentration 5, 10, 20 mg/ml)	Compound
No phase separation	only partial gelation	formed organogels	gelled preferably in ethyl acetate	–	–	CC[C@H](C)[C@H](NC(C)=O)C(=O)N[C@H](C(=O)N[C@@H](CC(=O)O)C(=O)O)C(C)C [Ac-IVD-COOH (L)] (Ac-Ile-Val-Asp-OH)
–	–	formed organogels	–	–	–	CC[C@H](C)[C@H](NC(C)=O)C(=O)N[C@H](C(=O)N[C@@H](Cc1ccccc1)C(=O)O)C(C)C [Ac-IVF-COOH (L)]
–	–	formed organogels	–	increased size of the organogel	partial gelation	Ac-LIVAGD [Ac-LIVAGD-COOH (L)]
–	–	formed organogels	–	–	–	CC[C@H](C)[C@H](NC(C)=O)C(=O)N[C@H](C(=O)N[C@@H](Cc1c[nH]c2ccccc12)C(=O)O)C(C)C [Ac-IVW-COOH (L)] (Ac-Ile-Val-Trp-OH)
